Measurements published in patent publication US12138263B2, “Pyrazolo[3,4-b]pyrazine SHP2 phosphatase inhibitors and methods of use thereof” (Relay Therapeutics, Inc., priority 2018, dated 2024).

Biological target: SHP2 (Homo sapiens (Human), UniProt Q06124)
Assay: SHP2 allosteric inhibition assay (DiFMUP prompt fluorescence)
Assay type: biochemical
Conditions: Table 3; 0.25 nM SHP2 with 0.5 μM peptide IRS1_pY1172(dPEG8)pY1222, substrate DiFMUP 100 μM

Row | IC50 | SMILES
1 | < 1000 nM | CC(=O)N1CCN(c2n[nH]c3nc(N4CCC5(CC4)CO[C@@H](C)[C@H]5N)c(CO)nc23)c2ccccc21 [Compound 23C]
2 | < 1000 nM | C[C@@H]1OCC2(CCN(c3nc4[nH]nc(-c5ccc6occc6c5)c4nc3CO)CC2)[C@@H]1N [Compound 24C]

Further lines, the molecule ahead of its results:

Row | SMILES | IC50
3 | C[C@@H]1OCC2(CCN(c3nc4[nH]nc(N5CCCc6nc(-c7ccn[nH]7)ccc65)c4nc3CO)CC2)[C@@H]1N [Compound 20C, (3-(6-(1H-pyrazol-5-yl)-3,4-dihydro-1,5-naphthyridin-1(2H)-yl)-6-((3S,4S)-4-amino-3-methyl-2-oxa-8-azaspiro[4.5]decan-8-yl)-1H-pyrazolo[3,4-b]pyrazin-5-yl)methanol] | < 1000 nM
4 | COC1CC(N2CCN(c3n[nH]c4nc(N5CCC6(CC5)CO[C@@H](C)[C@H]6N)c(CO)nc34)c3ccc(C#N)cc32)C1 (some centres unmarked) [Compound 21C] | < 1000 nM
5 | C[C@@H]1OCC2(CCN(c3nc4[nH]nc(-c5cccc6ncccc56)c4nc3CO)CC2)[C@@H]1N [Compound 22C, (6-((3S,4S)-4-amino-3-methyl-2-oxa-8-azaspiro[4.5]decan-8-yl)-3-(quinolin-5-yl)-1H-pyrazolo[3,4-b]pyrazin-5-yl)methanol] | < 1000 nM
